Experimental data from patent publication EP2002836B1, “Cyclocondensed azaindoles active as kinase inhibitors” (Nerviano Medical Sciences S.r.l., priority 2007, dated 2008).

molecular target: AKT1 (Homo sapiens, UniProt P31749); test: Biochemical assay for inhibitors of AKT1 kinase activity (33P trans-phosphorylation, Dowex resin); design: made in house; conditions: 5 nM enzyme, 132 microM ATP, 30 microM peptide substrate; read-out: AKT1 IC50 (µM) Biochem assay
Experimental: The N-terminal GST fusion proteins used for the assays were prepared according to the methods described in Kumar, C. C. Biochem. Biophys. ACTA 2001, 1526, 257-268, and in Alessi, D. R.. Biochem. J. 1998 331, 299-308.
The inhibitory activity of putative kinase inhibitors and the potency of selected compounds were determined using a trans-phosphorylation assay.
A specific substrate was incubated with the kinase in appropriate buffer conditions in the presence of ATP traced with ^33P-γ-ATP (gamma phosphate-labeled, Redivue™ Code Number AH9968, 1000-3000Ci/mmole, Amersham Biosciences Piscataway, NJ, USA), optimal cofactors and test compound.
At the end of the phosphorylation reaction, more than 98% cold and radioactive ATP were captured by an excess of Dowex ion exchange resin. The resin was allowed to settle to the bottom of reaction wells by gravity. Supernatant, containing substrate peptide, was subsequently withdrawn and transferred into a counting plate, and radioactivity (corresponding to phosphate incorporated into peptide) was evaluated by β-counting.
Kinase buffer was composed of 50 mM TRIS pH 7.5 containing10 mM MgCl2, 1 mM DTT, 3 microM Na3VO4, and 0.2 mg/mL BSA. 3X KB is buffer of the same composition and pH as KB, but with three times the concentration of each component. iii.Assay conditions (final concentrations) for AKT1.
The kinase assay was run with a final enzyme concentration of 5 nM, in the presence of 132 microM ATP, 0.88 nM ^33P-γ-ATP and 30 microM substrate, a carboxy-terminally biotinylated peptide of the following sequence: ARKRERTYSFGHHA-biotin. The peptide was obtained in batches of >95% peptide purity from PRIMM labs Inc. (Boston MA, USA).
The "test" mixture of 15 microL consisting of: • 1) 5 µl/well of 3x Enzyme mix (done in Kinase Buffer 3X), • 2) 5 µl/well of 3x substrate and ATP mix (done in ddH2O), together with ^33P-γ-ATP, • 3) 5 µl/well of 3x test compounds (diluted into ddH2O - 3% DMSO).
For % inhibition studies, dilution plates at 1 mM, 10 microM and 100 microM were prepared in 100% DMSO, then diluted to 3X final desired concentration (30, 3 and 0.3 microM) in ddH2O, 3% DMSO. A Multimek 96 (Beckman Coulter, Inc. 4300 N. Harbor Boulevard, P.O. Box 3100 Fullerton, CA 92834-3100 USA) was used for compound pipetting into test plates.
For IC50 determination, starting solutions of 30 microM compound in 3% DMSO were derived from 1 mM/100% DMSO stock solutions. These 30 microM starting solutions were used for generation of a further 9 serial 1/3 dilutions in ddH20, 3% DMSO, so as to generate a 10-point dilution curve at 3X the final assay concentration. Serial dilution was conducted in 96-well plates using a Biomek 2000 (Beckman Coulter) system. Dilution curves of 7 compounds/plate were prepared, and each plate also included a 10-point dilution curve of Staurosporine, as well as several negative and positive control wells.
384-well plates, V bottom (test plates) are prepared with 5 µl of the compound dilution (3X) and then placed onto a PlateTrak 12 robotized station (Perkin Elmer; the robot has one 384-tips pipetting head for starting the assay plus one 96-tips head for dispensing the resin) together with one reservoir for the Enzyme mix (3X) and one for the ATP mix (3X).
At the start of the run, the robot aspirates 5 µl of ATP mix, makes an air gap inside the tips (3 µl) and aspirates 5 µl of AKT mix. The following dispensation into the plates allows the kinase reaction to start upon 3 cycles of mixing, done by the robot itself.
The robot incubates the plates for 60 minutes at room temperature, and then stops the reaction by pipetting 70 µl of dowex resin suspension into the reaction mix. Three cycles of mixing are done immediately after the addition of the resin.
Another mixing cycle is performed after all the plates are stopped, this time using normal tips: the plates are then allowed to rest for about one hour in order to maximize ATP capture. […]

AKT1, sequence (P31749 whole entry, the tested form may be a part): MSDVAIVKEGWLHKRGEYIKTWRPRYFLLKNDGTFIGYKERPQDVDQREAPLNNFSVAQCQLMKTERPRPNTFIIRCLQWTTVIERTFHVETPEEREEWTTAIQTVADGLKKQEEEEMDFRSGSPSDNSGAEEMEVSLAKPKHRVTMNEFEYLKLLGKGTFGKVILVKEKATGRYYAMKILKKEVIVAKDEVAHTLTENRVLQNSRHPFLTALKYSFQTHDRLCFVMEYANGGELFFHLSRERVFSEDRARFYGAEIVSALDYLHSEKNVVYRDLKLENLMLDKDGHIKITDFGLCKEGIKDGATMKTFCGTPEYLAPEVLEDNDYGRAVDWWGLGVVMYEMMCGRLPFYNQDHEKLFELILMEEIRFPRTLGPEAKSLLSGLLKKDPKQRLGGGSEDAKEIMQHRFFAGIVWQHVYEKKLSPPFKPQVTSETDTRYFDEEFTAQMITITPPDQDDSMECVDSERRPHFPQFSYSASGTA

IC50 [µM]	SMILES
0.05	NC[C@H](Cc1ccccc1)NC(=O)C1=Cc2c[nH]c3nccc(c23)CC1 [Cpd. 1, N-[(1S)-2-amino-1-benzylethyl]-6,7-dihydro-2H-2,3-diazabenzo[cd]azulene-8-carboxamide]
0.184	CC(=O)N1CC(C(=O)N[C@H](CN)Cc2ccccc2)=Cc2c[nH]c3nccc1c23 [Cpd. 3, 6-acetyl-N-[(1S)-2-amino-1-benzylethyl]-6,7-dihydro-2H-2,3,6-triazabenzo[cd]azulene-8-carboxamide]
0.121	O=C(N[C@H](CN1CCCC1)c1ccccc1)C1=Cc2c[nH]c3nccc(c23)CC1 [Cpd. 6, N-[(1S)-1-phenyl-2-pyrrolidin-1-ylethyl]-6,7-dihydro-2H-2,3-diazabenzo[cd]azulene-8-carboxamide]
0.017	NC[C@H](Cc1ccccc1)NC(=O)C1=Cc2c[nH]c3nccc(c23)NC1 [compound 2, N-[(1S)-2-amino-1-benzylethyl]-6,7-dihydro-2H-2,3,6-triazabenzo[cd]azulene-8-carboxamide]
